According to patent US8618080B2, “Immunomodulatory compounds and treatment of diseases related to an overproduction of inflammatory cytokines” (OM Pharma, priority 2006, dated 2013):

Columns and labels:
[1] = test system: murine DC cells; experiment: LPS-induced IL-12, TNF-α and IL-10 production by bone marrow derived dendritic cells; format: cell-based, murine (C57BL/7); conditions: murine BM-derived DC; compound 0.01-100 μg/ml 1 h 30 before LPS 1 μg/ml; 20 h; ELISA
Experimental: Femora and tibiae from two male C57BL/7, 6 week-old (Charles River Laboratories France), were removed, stripped of muscles and tendons, and desinfected with 70% ethanol. Both ends of each bone were cut and the marrow was flushed with HBSS (Gibco BRL) using a syringe with a 26-gauge needle. The resulting cell suspension was centrifuged for 5 min. at 500 g and washed in HBSS. The cells were resuspended at 3×10^5 cells/ml in RPMI-1640 (Gibco BRL) supplemented with 2 mM L-glutamin (Sigma), 100 U/ml penicillin (Sigma), 100 μg/ml streptomycin (Sigma), 50 μM β-mercaptoethanol (Sigma), 10% heat-inactivated FCS (Sigma) and 15 ng/ml murine rGM-CSF (R&D).
To generate bone marrow (BM) derived dendritic cells (DC), BM leukocytes were cultured in 100-mm bacteriological petri dishes (Falcon 1029) for 8 days at 37° C. in 5% CO2. On day 0, 10 ml of cell suspension were seeded per dish. On day 3, another 10 ml of freshly prepared medium were added to each plate and on day 6, 9 ml of top medium were carefully removed from each plate and replaced by 10 ml of fresh medium.
Non-adherent cells of the 8-day old BM cell cultures were collected, centrifuged for 5 min. at 500 g, and resuspended at 1.25×10^6 cells/ml in supplemented RPMI containing 10 ng/ml GM-CSF. The cells were then seeded in 24-well tissue culture plates ([…]) and incubated for 1 h 30 at 37° C. in 5% CO2 in the absence or presence of OM-294-DP or OM-197-MP-AC (0.01-100 μg/ml/200 μl/well). LPS (E.coli O26:B6, Sigma), was then added at 1 μg/ml, and the plates were further incubated. After 20 h incubation, the supernatants were collected for analysis of cytokines. IL-12p70, IL-10, and TNF-α concentrations in DC culture supernatants were measured by ELISA using OptEIA matched Ab pairs from BD Pharmingen. Supersignal ELISA Pico chemiluminescent peroxidase substrate (BD Pharmingen) was used for the detection by luminometry (Wallac 1420 multilabel counter Victor-2). The assays were performed according to manufacturer's instructions.
FIG. 1: IL-12 (left panels) and IL-10 (right panels) secretion by murine DC stimulated by LPS (1 μg/ml) alone, or first during 90 minutes with the indicated concentrations (in μg/ml) of OM-197-MP-AC (A) or 294-DP (B), and then by LPS (1 μg/ml) for 20 additional hours. The supernatants were collected from the DC cultures and analyzed by ELISA for the presence of IL-12 and IL-10.
FIG. 2: TNF-α secretion by murine DC stimulated by LPS (1 μg/ml) alone, or first during 90 minutes with the indicated concentrations (in μg/ml) of 294-DP (294), or of OM-197-MP-AC (197), and then by LPS (1 μg/ml) for 20 additional hours. The supernatants were collected from the DC cultures and analyzed by ELISA for the presence of TNF-α.

[2] = test system: NOD mice; experiment: Occurrence of diabetes in Non Obese Diabetic (NOD) mice; format: in vivo; conditions: for Occurrence of diabetes versus control (Kaplan-Meier, logrank): 10 weeks
Experimental: Group of 10 female 6-week old NOD mice were treated during 10 weeks with either 0.01, 0.1, and 1 mg/kg of OM-197-MP-AC. A group of 6 female MOD mice receiving 200 μl PBS i.p. 3 times a week was used as control.
In this series of experiments, the treatment was continued until the mice have reached 16 weeks of age. This is the point in time when control animals start developing overt diabetes.
Results in terms of diabetes incidence were compared to those obtained in control animals. Diabetes was checked once a week by glucosuria testing, using test strips (Glukotest®, Roche, France), twice a week when diabetes appeared. Diabetes was confirmed by evaluating glycemia (>3 mg/ml) with test strips (Glucotrend®).
The occurrence of diabetes in the different experimental groups is plotted (see FIG. 15) using the Kaplan-Meier method, i.e. non parametric cumulative survival plot. The statistical comparison between the curves is performed using the logrank (Mantel-Cox) test which provided the corresponding χ2 values.
FIG. 15: Occurrence of diabetes in NOD mice. Mice were treated i.p. with either PBS (6 animals), or the 3 indicated doses of OM-197-MP-AC (3 groups of 10 animals). Diabetes was checked once a week by glucosuria testing (Glukotest), and twice a week when diabetes appeared. Diabetes was confirmed by evaluating glycemia (>3 mg/ml) with test strips (Glucotrend®). The occurrence of diabetes in the different experimental groups is plotted (see FIG. 15) using the Kaplan-Meier method, i.e. non parametric cumulative survival plot. The statistical comparison between the curves is performed using the logrank (Mantel-Cox) test which provided the corresponding χ2 values: OM-197-MP-AC 1 mg/kg p=0.321; 0.1 mg/kg=0.0543

## CCCCCCCCCCCC(=O)O[C@H](CCCCCCCCCCC)CC(=O)N[C@@H](CCOP(=O)(O)O)C(=O)NCCC[C@H](COC(=O)CCCCCN)NC(=O)C[C@H](O)CCCCCCCCCCC [OM-197-MP-AC, (3S, 9R)-3-[(R)-3-dodecanoyloxytetradecanoylamino]-4-oxo-5-aza-9-[(R)-3-hydroxytetradecanoylamino]-decan-1, 10-diol 1-dihydrogenophosphate 10-(6-aminohexanoate)]
[1]
  LPS-induced production of IL-10: increase
  LPS-induced production of IL-12: decrease
  LPS-induced production of TNF-α: decrease
[2]; 0.1 mg/kg i.p.
  Occurrence of diabetes versus control (Kaplan-Meier, logrank): positive trend
[2]; 0.3 mg/kg, week 27, another experiment
  Animals exhibiting diabetes: 27%
[2]; 1 mg/kg i.p.
  Occurrence of diabetes versus control (Kaplan-Meier, logrank): significantly active
